Laboratory results taken from PubChem BioAssay AID1648 (Sanford-Burnham Center for Chemical Genomics, 2009).
The source made the active and inactive calls. No rule for the calls is given here.

The compounds below were run against Serine/threonine-protein kinase mTOR (Homo sapiens) (UniProt P42345) (assay: mTOR FRB domain ligand binding – biophysical, NMR (AID 1648)). Details: NMR binding to FRB domain, chemical shift.
Chain of Serine/threonine-protein kinase mTOR (Homo sapiens) (P42345 2015-2114): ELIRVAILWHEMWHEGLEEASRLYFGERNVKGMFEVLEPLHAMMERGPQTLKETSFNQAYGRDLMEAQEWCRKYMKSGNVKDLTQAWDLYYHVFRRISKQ

Compound	Kd
C(=N\n1cnnc1)/c1cccs1	> 4 mM (inactive)
O=C(O)c1ccc2c(c1)OCO2	> 4 mM (inactive)
CN(C)C(=O)Oc1cccc(-c2nnco2)c1	> 4 mM (inactive)
CN1CCN(c2ccc(C(=O)O)cc2)CC1	> 4 mM (inactive)
CN1CCCn2c1nc1c2c(=O)[nH]c(=O)n1C	> 4 mM (inactive)
NC(=O)c1ccccc1NC(=O)C1CC1	> 4 mM (inactive)
Nc1cc(C(=O)O)ccc1N1CCCCCC1	> 4 mM (inactive)
NC(=O)C1CCN(C(=O)CN2CCc3ccccc32)CC1	> 4 mM (inactive)
O=C(O)C1CC(=O)N(C2Cc3ccccc3C2)C1 (stereo not drawn)	> 4 mM (inactive)
O=S1(=O)C=C(Nc2ccccc2)CC1	> 4 mM (inactive)
Cc1nn(-c2ccccc2)c(Cl)c1C(N)=O	> 4 mM (inactive)
O=C1NNC(=O)C2C3c4ccccc4C(c4ccccc43)C12 (stereo not drawn)	> 4 mM (inactive)
OCC1CCCC1O (stereo not drawn)	> 4 mM (inactive)
NC1Cc2ccccc2C1	> 4 mM (inactive)
CCOC(=O)c1cc(C)[nH]n1	> 4 mM (inactive)
COC(=O)c1oc2ccc(Cl)cc2c1NC(C)=O	> 4 mM (inactive)
NCc1ccc2occc2c1	> 4 mM (inactive)
C[C@@H]1C(=O)OC2[C@H](O)C34[C@@H]5OC(=O)[C@@]3(O[C@@H]3OC(=O)[C@H](O)[C@@]34[C@H](C(C)(C)C)[C@H]5O)[C@]21O (stereo partly drawn)	> 4 mM (inactive)
CCn1c(-c2ccccc2)n[nH]c1=S	> 4 mM (inactive)
c1ccc(C[N+]23CCN(CC2)CC3)cc1	> 4 mM (inactive)
Cc1nc(N)sc1C(=O)Nc1nccs1	> 4 mM (inactive)
CS(=O)(=O)Nc1ccccc1C(=O)c1ccccc1	> 4 mM (inactive)
NC(=O)c1cc2c(n(-c3ccccc3)c1=O)CCCC2=O	> 4 mM (inactive)
CC(=O)Nc1sc(C)c(C)c1C(N)=O	> 4 mM (inactive)

Compound	Kd
Cc1ccc(=O)[nH]c1	> 4 mM (inactive)
Cc1cc(=O)n2[nH]c(N)nc2n1	> 4 mM (inactive)
Nc1nc(-c2ccc(O)cc2)cs1	> 4 mM (inactive)
O=C1CSC(=NC(=O)c2ccccc2)N1	> 4 mM (inactive)
O=c1ccc(=O)n(CN2CCc3ccccc3C2)[nH]1	> 4 mM (inactive)
O=C1C2CC=CCC2C(=O)N1c1ccccc1 (stereo not drawn)	> 4 mM (inactive)
Nc1nnc(Cc2ccc(Cl)cc2)s1	> 4 mM (inactive)
CNC(=S)Nc1ccc(C(=O)O)cc1	> 4 mM (inactive)
Cc1nnc(NCCN2CCOCC2)[nH]c1=O	> 4 mM (inactive)
COc1ccc(/C=C2/N=C(N)SC2=O)cc1	> 4 mM (inactive)
COc1ccc(NC(=O)C2CC(=O)N=C(N)S2)cc1 (stereo not drawn)	> 4 mM (inactive)
Cc1ccc(-c2c(C)n([O-])c(C)c(C)[n+]2=O)cc1	> 4 mM (inactive)
O=C(O)CCC(=O)c1cccc2ccccc12	> 4 mM (inactive)
OCc1ccccc1CN1CCOCC1	> 4 mM (inactive)
O=C(O)Cn1cc(C(F)(F)F)ccc1=O	> 4 mM (inactive)
Nc1ccn(C2O[C@H](CO)[C@@H](O)[C@H]2O)c(=O)n1 (stereo partly drawn)	> 4 mM (inactive)
O=C(Nn1cnnc1)c1cccc(C(F)(F)F)c1	> 4 mM (inactive)
Cc1ccc(C(=O)NC2=NCCS2)o1	> 4 mM (inactive)
NC(=O)c1cccnc1Oc1ccccc1	> 4 mM (inactive)
CCC(=O)OC1[C@@H]2CC3=C4CC(=O)O[C@@H](c5ccoc5)[C@]4(C)CCC3C(C)(C2=O)[C@@H](CC(=O)OC)C1(C)C (stereo partly drawn)	> 4 mM (inactive)
CCn1ccc(C(=O)Nc2nccs2)n1	> 4 mM (inactive)
O=C(Oc1ccc(-c2nnco2)cc1)N1CCOCC1	> 4 mM (inactive)
O=S(=O)(O)c1nc2ccccc2[nH]1	> 4 mM (inactive)
Cc1cc(C(=O)N2CCN(c3ccccn3)CC2)no1	> 4 mM (inactive)

Compound	Kd
Cc1ccc(CN2C3=NC(=O)CN3c3ccccc32)cc1	> 4 mM (inactive)
COc1cc2c(cc1OC)[C@@H]1C(=O)c3ccc(OC)c(CC=C(C)C)c3O[C@@H]1CO2	> 4 mM (inactive)
CC(=O)NC(=S)Nc1ccc(S(N)(=O)=O)cc1	> 4 mM (inactive)
NC1=NC(=O)CC(C(=O)Nc2ccccc2)S1 (stereo not drawn)	> 4 mM (inactive)
CCC(/C=C/[C@@H](C)[C@H]1CCC2C3CC=C4C[C@@H](O)CC[C@]4(C)C3CC[C@@]21C)C(C)C (stereo partly drawn)	> 4 mM (inactive)
Nc1ccc(-n2cncn2)cc1	> 4 mM (inactive)
Cc1cc(C(F)(F)F)n2nc(C(=O)O)c(Cl)c2n1	> 4 mM (inactive)
O=c1c(O)c(-c2ccccc2)oc2ccc3occc3c12	> 4 mM (inactive)
OC1(c2ccc(Cl)cc2)CCNCC1	> 4 mM (inactive)
COc1cccc(NC(=O)c2ncn[nH]2)c1	> 4 mM (inactive)
CN1CCC(O)N1C(=O)c1ccccc1O (stereo not drawn)	> 4 mM (inactive)
O=c1c(O)c(-c2ccccc2)oc2cc(O)ccc12	> 4 mM (inactive)
C/C=C(\C)C(=O)O[C@H]1C[C@@H](OC(C)=O)[C@@]2(C(=O)OC)CO[C@@H]3C2[C@]12CO[C@](O)(C(=O)OC)[C@H]2[C@](C)(C12O[C@@]1(C)[C@H]1C[C@@H]2OC2OC=C[C@@]21O)[C@@H]3O (stereo partly drawn)	> 4 mM (inactive)
Cc1cc(C(=O)Nn2cnnc2)cs1	> 4 mM (inactive)
COc1ccc2c(c1)=C(c1sc(N)nc1O)C(=O)N=2	> 4 mM (inactive)
CNc1nc(C)nc(-n2nc(C)cc2C)n1	> 4 mM (inactive)
NC(CC(=O)O)c1ccccc1 (stereo not drawn)	> 4 mM (inactive)
CCNC(=O)CC1Nc2ccccc2NC1=O (stereo not drawn)	> 4 mM (inactive)
O=C(Nc1ccccc1Cl)c1cnccn1	> 4 mM (inactive)
NC(=O)c1oc2ccccc2c1N	> 4 mM (inactive)
Cc1cc(O)cc(=O)n1CCCC(=O)O	> 4 mM (inactive)
O=C(COc1ccccc1)N1CCc2ccccc2C1	> 4 mM (inactive)
Cc1ccccc1C(=O)Nc1cccc(N)c1	> 4 mM (inactive)
CCC(C)C(=O)c1c(O)c(C)c2oc3c(C)c(O)c(C(=O)C(C)CC)c(O)c3c2c1O (stereo not drawn)	> 4 mM (inactive)

Compound	Kd
CN(C)c1ccc(C2CC(=O)CC(=O)C2)cc1	> 4 mM (inactive)
CN(Cc1nc2ccccc2n1C)S(C)(=O)=O	> 4 mM (inactive)
COc1ccc2c(c1)OCC(Cc1ccc(OC)c(O)c1)C2=O (stereo not drawn)	> 4 mM (inactive)
O=C(NC(=S)NCc1cccnc1)c1ccco1	> 4 mM (inactive)
COc1ccc2c(c1)OC[C@@H](Cc1ccc(OC)c(OC)c1)[C@@H]2O	> 4 mM (inactive)
O=c1cc(-c2ccc(O)cc2)oc2cc(O)cc(O)c12	> 4 mM (inactive)
C[C@]12CCC3C(CC[C@]4(O)C[C@@H](O)CC[C@]34C=O)[C@@]1(O)CCC2C1=CC(=O)OC1 (stereo partly drawn)	> 4 mM (inactive)
C=C[C@@](C)(O)CCC1C(=C)CCC2[C@@](C)(CO)CCC[C@]12C (stereo partly drawn)	> 4 mM (inactive)
O=C1NC2NC(=O)N(c3ccccc3)C2N1 (stereo not drawn)	> 4 mM (inactive)
O=C(O)CNC(=O)c1ccccc1	> 4 mM (inactive)
COC(=O)c1ccc(C(=S)N2CCOCC2)cc1	> 4 mM (inactive)
O=C(Nc1nncs1)Oc1ccccc1	> 4 mM (inactive)
NCC1CN(Cc2ccccc2)CCO1 (stereo not drawn)	> 4 mM (inactive)
Cc1ccc2c(c1)=C(c1sc(N)nc1O)C(=O)N=2	> 4 mM (inactive)
Cc1onc(-c2ccccc2)c1C(=O)O	> 4 mM (inactive)
Nc1ncccc1OCc1ccccc1	> 4 mM (inactive)
C/C=C(/C)C(=O)O[C@@H]1Cc2c(ccc3ccc(=O)oc23)OC1(C)C	> 4 mM (inactive)
CC(=O)c1c(C)n(O)c2ccc3nonc3c12	> 4 mM (inactive)
Cc1cc[n+](-c2nc([O-])sc2C=O)cc1	> 4 mM (inactive)
Cc1cc(NC(=O)CSc2nncn2C)no1	> 4 mM (inactive)
O=C(O[C@@H]1Cc2c(O)cc(O)cc2O[C@@H]1c1cc(=O)c(O)c2c(O)c(O)cc([C@H]3Oc4cc(O)cc(O)c4C[C@H]3O)c2c1)c1cc(O)c(O)c(O)c1	> 4 mM (inactive)
O=C(NCCCSc1ncccn1)Nc1ncccn1	> 4 mM (inactive)
O=C(Nc1nnc(-c2ccncc2)o1)c1cccs1	> 4 mM (inactive)
Cc1cc(C)nc(/N=C(/N)N2CCC(C(N)=O)CC2)n1	> 4 mM (inactive)

Compound	Kd
Nc1cc(N)nc(SCc2ccccc2)n1	> 4 mM (inactive)
c1cncc(C2CCCCN2)c1 (stereo not drawn)	> 4 mM (inactive)
O=C1CCC(=O)N1c1cccnc1	> 4 mM (inactive)
COc1c2ccoc2c(OC)c2oc(=O)ccc12	> 4 mM (inactive)
O=C(NC1=NCCS1)c1ccc(Cl)s1	> 4 mM (inactive)
CC(C)(O)[C@@H]1Cc2cc3ccc(=O)oc3cc2O1	> 4 mM (inactive)
CC(=O)N1N=C(N)SC1c1cccnc1 (stereo not drawn)	> 4 mM (inactive)
CC1(C)N=C2C(=[N+]1[O-])CCC/C2=N\O	> 4 mM (inactive)
COc1cc(O)c2c(=O)c(O)c(-c3ccc(O)c(O)c3)oc2c1	> 4 mM (inactive)
CC(=O)OC1CCC23CC1(C)CCC2C(C)(C)CC3OC(C)=O (stereo not drawn)	> 4 mM (inactive)
CCOC(=O)CC1Sc2ccccc2NC1=O (stereo not drawn)	> 4 mM (inactive)
CC(C)(C)CC(=O)NNC(=O)c1cnccn1	> 4 mM (inactive)
O=c1[nH]c(=S)[nH]c2c1CCC2	> 4 mM (inactive)
CCOC(=O)Cc1nc2ccccc2[nH]1	> 4 mM (inactive)
CN1CCC(NC(=O)c2ccccc2[N+](=O)[O-])CC1	> 4 mM (inactive)
O=[N+]([O-])c1c[n+]([O-])n(-c2ccccc2)n1	> 4 mM (inactive)
OC(c1ccccc1)c1ccccn1 (stereo not drawn)	> 4 mM (inactive)
Nn1c(CN2CCCCC2)nc2ccccc2c1=O	> 4 mM (inactive)
O=C(Nc1ccc2c(c1)OCO2)c1ccc(=O)[nH]n1	> 4 mM (inactive)
S=C1NC(=S)NC(c2ccc3c(c2)OCO3)N1	> 4 mM (inactive)
O=C(/C=C/c1ccccc1)c1ccc(O)cc1	> 4 mM (inactive)
O=C(NC1=NCCS1)c1ccc([N+](=O)[O-])cc1Cl	> 4 mM (inactive)
